Source: patent US20110151033A1, “ORTHOSIPHON STAMINEUS EXTRACTS FOR USE AS A COGNITION ENHANCER” (BIOTROPICS MALAYSIA BHD, priority 2009, published 2011)

tested on: mature adult rat; assay: Social Recognition Test (SRT), in vivo; details: 3 mg/kg, same administration regime
Experimental: The method, which detects memory enhancing activity, follows that described by Lemaire et al. (Psychopharmacology, 115, 435-440, 1994). An unfamiliar juvenile rat was introduced into the individual home cage of a mature adult rat for 5 minutes. Following this first contact (C1), the juvenile was returned to its isolation cage, until a second contact of 5 minutes with the same mature adult rat (C2), 120 minutes later was allowed.
The time the adult rat spended investigating (sniffing, grooming, licking, closely following) the juvenile at each contact was recorded. A recognition index (=C2/C1) was calculated. Under such conditions, a mature adult rat fails to recognize the juvenile as familiar, as indicated by an absence of reduction in the duration of social investigatory behaviour at C2.
12 rats were studied per group (in total 3 groups, vehicle, test compound, positive control). The test was performed blind. The test compound (e.g. the extract according example 3) was evaluated at a dose of 1 g/kg administered p.o. immediately after Cl (i.e. 120 minutes before C2), and compared with a vehicle control group. The test substance was dispersed in 4% Cremophor El, (polyoxyethylated castor oil, BASF, Ludwigshafen, Germany) in physiological saline which served as the vehicle. […] Data were analyzed by comparing treated groups with appropriate control using unpaired Student's t tests. […]

| SMILES | effect of the positive control (presumably on the Recognition Index) [%] |
| --- | --- |
| COc1cc2c(cc1OC)C(=O)C(CC1CCN(Cc3ccccc3)CC1)C2 (stereo not drawn) [Donepezil] | −28 |

biological target: T1, ADORA2A (Homo sapiens, UniProt P29274); assay: ADORA2A in vitro receptor assay, [3H]CGS-21680 radioligand binding; details: human recombinant HEK-293 cells, 0.05 μM [3H] CGS-21680
T1 construct: host or cells: HEK-293
T1 sequence (P29274 whole entry): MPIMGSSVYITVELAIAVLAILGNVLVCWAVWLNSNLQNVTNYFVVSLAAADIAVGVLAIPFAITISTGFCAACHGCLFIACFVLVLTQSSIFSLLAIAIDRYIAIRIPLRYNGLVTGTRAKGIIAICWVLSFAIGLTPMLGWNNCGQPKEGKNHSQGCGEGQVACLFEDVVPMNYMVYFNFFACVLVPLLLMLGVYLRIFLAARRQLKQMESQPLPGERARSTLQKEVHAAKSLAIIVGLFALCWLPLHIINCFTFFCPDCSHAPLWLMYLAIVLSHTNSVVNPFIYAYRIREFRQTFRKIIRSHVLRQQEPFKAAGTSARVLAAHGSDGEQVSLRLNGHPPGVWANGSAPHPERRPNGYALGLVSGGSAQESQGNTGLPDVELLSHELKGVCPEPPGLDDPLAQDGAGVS
Experimental: The methods employed in this study have been adapted from the scientific literature (Varani K, Gessi S, Dalpiaz A, Borea P A (1996) Br. J. Pharmacol. 117, 1693 Pharmacological and biochemical characterization of purified A2A adenosine receptors in human platelet membranes by [3H]CGS-21680 binding) to maximize reliability and reproducibility. Reference standards are run as an integral part of each assay to ensure the validity of the results obtained. Assays are performed under conditions described below. (assay number 200610, Ricerca Biosciences, LLC, Taipei, Taiwan). • Source: Human recombinant HEK-293 cells • Ligand: 0.05 μM [3H]

| SMILES | inhibition at 10 µM [%] |
| --- | --- |
| C=C[C@@]1(C)CC(=O)[C@H]2[C@](O)(C1=O)[C@H](OC(C)=O)C[C@H]1C(C)(C)[C@H](OC(=O)c3ccccc3)[C@H](OC(C)=O)[C@H](OC(=O)c3ccccc3)[C@@]12C [[6], Orthosiphonone A] | 42 |
| C=C[C@@]1(C)C[C@@H](OC(=O)c2ccccc2)[C@H]2[C@](O)(C1=O)[C@H](OC(C)=O)C[C@H]1C(C)(C)[C@H](O)[C@H](OC(C)=O)[C@H](OC(=O)c3ccccc3)[C@@]12C [[4], Orthosiphol A] | 42 |
| C=C[C@@]1(C)C[C@@H](OC(=O)c2ccccc2)[C@@H]2[C@@]3(C)C=C(OC(C)=O)C(=O)C(C)(C)[C@@H]3C[C@@H](OC(C)=O)[C@@]2(O)C1=O [[5], Orthosiphol D] | 52 |

More lines, now with the values ahead:

| inhibition at 10 µM [%] | SMILES |
| --- | --- |
| 64 | C=CC1C(OC(=O)c2ccccc2)C2C(O)(C(=O)C1(C)O)C(OC(C)=O)CC1C(C)(C)C(O)C(OC(C)=O)C(OC(=O)c3ccccc3)C12C (stereo not drawn) [[7], Neoorthosiphol A] |
| 42 | C=CC1C(OC(=O)c2ccccc2)C2C(O)(C(=O)C1(C)O)C(OC(C)=O)CC1C(C)(C)C(OC(C)=O)C(OC(C)=O)C(OC(=O)c3ccccc3)C12C (stereo not drawn) [[8], Staminol A] |
